This passage reports mortality results from ChEMBL document CHEMBL3046766, “Design, synthesis, and insecticidal evaluation of new benzoylureas containing isoxazoline and isoxazole group” (2011).

One may read the mortality as the share of the test organisms that died.

Common to all, as to type: functional
The subject of experiment [1] is Mythimna separata. The experiment can be described thus: Insecticidal activity against Mythimna separata (Oriental armyworm) fourth-instar larvae infested compound pre-treated corn leaves assessed as larvicidal activity at 25 mg/L measured 4 days post treatment.
Experiment [2] deals with Plutella xylostella. The experiment in a line: Insecticidal activity against Plutella xylostella (diamondback moth) […] larvae infested on compound pre-treated fresh cabbage leaves assessed as larvicidal activity at 0.2 mg/L measured 3 days post treatment.
In experiment [3] the test system is Mythimna separata. The experiment can be described thus: Insecticidal activity against Mythimna separata (Oriental armyworm) fourth-instar larvae infested compound pre-treated corn leaves assessed as larvicidal activity at 50 mg/L measured 4 days post treatment.
Experiment [4] relates to Culex pipiens pallens. The experiment in a line: Insecticidal activity against Culex pipiens pallens (mosquito) fourth-instar larvae assessed as larvicidal activity at 0.25 mg/L measured 8 days post treatment. Conditions: 192 h.
The subject of experiment [5] is Mythimna separata. The experiment in a line: Insecticidal activity against Mythimna separata (Oriental armyworm) fourth-instar larvae infested compound pre-treated corn leaves assessed as larvicidal activity at 5 mg/L measured 4 days post treatment.
Experiment [6] has as its system Plutella xylostella. The experiment in a line: Insecticidal activity against Plutella xylostella (diamondback moth) […] larvae infested on compound pre-treated fresh cabbage leaves assessed as larvicidal activity at 2 mg/L measured 3 days post treatment.
The test system of experiment [7] is Mythimna separata. The experiment in a line: Insecticidal activity against Mythimna separata (Oriental armyworm) fourth-instar larvae infested compound pre-treated corn leaves assessed as larvicidal activity at 10 mg/L measured 4 days post treatment.
Experiment [8] has as its system Plutella xylostella. The experiment in a line: Insecticidal activity against Plutella xylostella (diamondback moth) […] larvae infested on compound pre-treated fresh cabbage leaves assessed as larvicidal activity at 0.02 mg/L measured 3 days post treatment.
In experiment [9] the test system is Plutella xylostella. The experiment can be described thus: Insecticidal activity against Plutella xylostella (diamondback moth) […] larvae infested on compound pre-treated fresh cabbage leaves assessed as larvicidal activity at 5 mg/L measured 3 days post treatment.
Experiment [10] has as its system Culex pipiens pallens. The experiment can be described thus: Insecticidal activity against Culex pipiens pallens (mosquito) fourth-instar larvae assessed as larvicidal activity at 0.1 mg/L measured 8 days post treatment. The note with it: 192 h.
Experiment [11] deals with Mythimna separata. The experiment can be described thus: Insecticidal activity against Mythimna separata (Oriental armyworm) fourth-instar larvae infested compound pre-treated corn leaves assessed as larvicidal activity at 200 mg/L measured 4 days post treatment.
The subject of experiment [12] is Plutella xylostella. The experiment can be described thus: Insecticidal activity against Plutella xylostella (diamondback moth) […] larvae infested on compound pre-treated fresh cabbage leaves assessed as larvicidal activity at 20 mg/L measured 3 days post treatment.
The subject of experiment [13] is Culex pipiens pallens. The experiment can be described thus: Insecticidal activity against Culex pipiens pallens (mosquito) fourth-instar larvae assessed as larvicidal activity at 2 mg/L measured 8 days post treatment. The note with it: 192 h.
Experiment [14] has as its system Mythimna separata. The experiment can be described thus: Insecticidal activity against Mythimna separata (Oriental armyworm) fourth-instar larvae infested compound pre-treated corn leaves assessed as larvicidal activity at 100 mg/L measured 4 days post treatment.
The subject of experiment [15] is Plutella xylostella. The experiment can be described thus: Insecticidal activity against Plutella xylostella (diamondback moth) […] larvae infested on compound pre-treated fresh cabbage leaves assessed as larvicidal activity at 200 mg/L measured 3 days post treatment.
Experiment [16] concerns Plutella xylostella. The experiment can be described thus: Insecticidal activity against Plutella xylostella (diamondback moth) […] larvae infested on compound pre-treated fresh cabbage leaves assessed as larvicidal activity at 100 mg/L measured 3 days post treatment.
Experiment [17] has as its system Culex pipiens pallens. The experiment in a line: Insecticidal activity against Culex pipiens pallens (mosquito) fourth-instar larvae assessed as larvicidal activity at 1 mg/L measured 8 days post treatment. The note with it: 192 h.
The subject of experiment [18] is Culex pipiens pallens. The experiment in a line: Insecticidal activity against Culex pipiens pallens (mosquito) fourth-instar larvae assessed as larvicidal activity at 0.5 mg/L measured 8 days post treatment. Conditions: 192 h.
Experiment [19] relates to Mythimna separata. The experiment can be described thus: Insecticidal activity against Mythimna separata (Oriental armyworm) fourth-instar larvae infested compound pre-treated corn leaves assessed as larvicidal activity at 1 mg/L measured 4 days post treatment.
Experiment [20] concerns Culex pipiens pallens. The experiment can be described thus: Insecticidal activity against Culex pipiens pallens (mosquito) fourth-instar larvae assessed as larvicidal activity at 0.05 mg/L measured 8 days post treatment. Conditions: 192 h.
Experiment [21] concerns Mythimna separata. The experiment in a line: Insecticidal activity against Mythimna separata (Oriental armyworm) fourth-instar larvae infested compound pre-treated corn leaves assessed as larvicidal activity at 2.5 mg/L measured 4 days post treatment.
The test system of experiment [22] is Culex pipiens pallens. The experiment can be described thus: Insecticidal activity against Culex pipiens pallens (mosquito) fourth-instar larvae assessed as larvicidal activity at 0.025 mg/L measured 8 days post treatment. The note with it: 192 h.

As to `CC(C)(C)C1CC(c2ccc(NC(=O)NC(=O)c3c(F)cccc3F)cc2)=NO1` (stereo unspecified), the mortality at 25 µg/mL in the experiment on Mythimna separata [1] was 100%. In the experiment with Plutella xylostella [2], the mortality at 0.2 µg/mL turned out to be 70%. For the same compound, in the experiment with Mythimna separata [3], the mortality at 50 µg/mL amounted to 100%. In the experiment with Culex pipiens pallens [4], the mortality at 0.25 µg/mL is 100%. For the same compound, the mortality at 5 µg/mL with Mythimna separata [5] was determined as 40%; with Plutella xylostella [9], 100%. Besides, the mortality at 2 µg/mL in the experiment with Plutella xylostella [6] stood at 80%. The mortality at 10 µg/mL in the experiment with Mythimna separata [7] came to 100%. Also, the mortality at 0.02 µg/mL with Plutella xylostella [8] amounted to 10%. Besides, in the experiment with Culex pipiens pallens [10], the mortality at 0.1 µg/mL came out at 50%.

As for `O=C(NC(=O)c1c(F)cccc1F)Nc1ccc(C2=NOC(c3ccc(F)cc3)C2)cc1` (stereo unspecified), in the experiment with Mythimna separata [11], the mortality at 200 µg/mL was 10%. For the same compound, the mortality at 20 µg/mL in the experiment on Plutella xylostella [12] was determined as 100%. Moreover, the mortality at 2 µg/mL in the experiment on Culex pipiens pallens [13] is 40%; with Plutella xylostella [6], 30%. The mortality at 5 µg/mL in the experiment with Plutella xylostella [9] amounted to 80%.

`CCCCC1CC(c2ccc(NC(=O)NC(=O)c3c(F)cccc3F)cc2)=NO1` (stereo unspecified): the mortality at 100 µg/mL in the experiment with Mythimna separata [14] came to 100%; with Plutella xylostella [16], 70%. In the experiment with Mythimna separata [3], the mortality at 50 µg/mL came to 0%. Also, the mortality at 200 µg/mL is 80% in the experiment on Plutella xylostella [15] and 100% in the experiment with Mythimna separata [11]. Also, the mortality at 20 µg/mL in the experiment on Plutella xylostella [12] turned out to be 20%. The mortality at 2 µg/mL in the experiment on Culex pipiens pallens [13] turned out to be 30%.

As to `O=C(NC(=O)c1c(F)cccc1F)Nc1ccc(C2=NOC(CBr)C2)cc1` (stereo unspecified), in the experiment on Mythimna separata [14], the mortality at 100 µg/mL came to 100%. Also, the mortality at 50 µg/mL with Mythimna separata [3] is 20%. The mortality at 200 µg/mL in the experiment with Plutella xylostella [15] came to 40%. For the same compound, in the experiment with Plutella xylostella [12], the mortality at 20 µg/mL came out at 0%. In addition, the mortality at 2 µg/mL in the experiment with Culex pipiens pallens [13] turned out to be 60%.

`CCCCCCCC1CC(c2ccc(NC(=O)NC(=O)c3c(F)cccc3F)cc2)=NO1` (stereo unspecified): in the experiment on Mythimna separata [14], the mortality at 100 µg/mL came to 100%. Moreover, the mortality at 50 µg/mL in the experiment on Mythimna separata [3] came out at 60%. In the experiment on Plutella xylostella [15], the mortality at 200 µg/mL stood at 0%. Further, the mortality at 2 µg/mL in the experiment with Culex pipiens pallens [13] was 50%.

For `N#CC1CC(c2ccc(NC(=O)NC(=O)c3c(F)cccc3F)cc2)=NO1` (stereo unspecified), the mortality at 100 µg/mL with Mythimna separata [14] came out at 100%. For the same compound, in the experiment on Mythimna separata [3], the mortality at 50 µg/mL came out at 0%. In addition, the mortality at 200 µg/mL with Plutella xylostella [15] worked out at 0%. The mortality at 0.25 µg/mL in the experiment with Culex pipiens pallens [4] was 100%. For the same compound, the mortality at 0.1 µg/mL with Culex pipiens pallens [10] came out at 70%.

As to `COC(=O)C1CC(c2ccc(NC(=O)NC(=O)c3c(F)cccc3F)cc2)=NO1` (stereo unspecified), the mortality at 100 µg/mL with Mythimna separata [14] turned out to be 100%. Moreover, in the experiment on Mythimna separata [3], the mortality at 50 µg/mL is 0%. Further, the mortality at 200 µg/mL in the experiment on Plutella xylostella [15] is 10%. Further, in the experiment with Culex pipiens pallens [13], the mortality at 2 µg/mL is 60%.

Take `CCCCOCC1CC(c2ccc(NC(=O)NC(=O)c3c(F)cccc3F)cc2)=NO1` (stereo unspecified): the mortality at 100 µg/mL in the experiment with Mythimna separata [14] came to 100%. Also, the mortality at 1 µg/mL in the experiment on Culex pipiens pallens [17] was 80%. Besides, the mortality at 50 µg/mL in the experiment on Mythimna separata [3] worked out at 40%. Besides, in the experiment on Plutella xylostella [15], the mortality at 200 µg/mL was found to be 10%. Also, the mortality at 2 µg/mL in the experiment on Culex pipiens pallens [13] worked out at 100%.

For the compound `O=C(NC(=O)c1c(F)cccc1F)Nc1ccc(C2=NOC(COCC(F)(F)F)C2)cc1` (stereo unspecified), the mortality at 100 µg/mL with Mythimna separata [14] was 100%. Further, the mortality at 50 µg/mL in the experiment with Mythimna separata [3] is 60%. Besides, the mortality at 200 µg/mL with Plutella xylostella [15] is 0%. In the experiment on Culex pipiens pallens [13], the mortality at 2 µg/mL was 40%.

In the case of `O=C(NC(=O)c1c(F)cccc1F)Nc1ccc(C2=NOC(c3ccccc3)C2)cc1` (stereo unspecified), the mortality at 100 µg/mL with Mythimna separata [14] was found to be 100%. In addition, in the experiment on Mythimna separata [3], the mortality at 50 µg/mL was 0%. Further, the mortality at 200 µg/mL in the experiment on Plutella xylostella [15] stood at 50%. Besides, the mortality at 0.25 µg/mL with Culex pipiens pallens [4] stood at 100%. In the experiment with Plutella xylostella [12], the mortality at 20 µg/mL was 30%. Further, the mortality at 0.1 µg/mL in the experiment with Culex pipiens pallens [10] was found to be 90%.

With `CC1(c2ccccc2)CC(c2ccc(NC(=O)NC(=O)c3c(F)cccc3F)cc2)=NO1` (stereo unspecified), the mortality at 100 µg/mL with Mythimna separata [14] was 100%; in the experiment on Plutella xylostella [16] it was 80%. Further, the mortality at 50 µg/mL in the experiment with Mythimna separata [3] came out at 60%. Moreover, the mortality at 200 µg/mL in the experiment on Plutella xylostella [15] and with Mythimna separata [11] was 100% throughout. In addition, the mortality at 0.25 µg/mL in the experiment on Culex pipiens pallens [4] was 100%. Also, the mortality at 20 µg/mL with Plutella xylostella [12] turned out to be 30%. For the same compound, in the experiment with Culex pipiens pallens [18], the mortality at 0.5 µg/mL worked out at 100%. The mortality at 0.1 µg/mL in the experiment on Culex pipiens pallens [10] was 80%.

Take `O=C(NC(=O)c1c(F)cccc1F)Nc1ccc(CO/N=C(/c2ccc(Cl)cc2)C2CC2)cc1` [FLUCYCLOXURON]: the mortality at 1 µg/mL in the experiment with Mythimna separata [19] is 10%. For the same compound, the mortality at 0.05 µg/mL in the experiment with Culex pipiens pallens [20] was found to be 100%. For the same compound, the mortality at 2.5 µg/mL in the experiment with Mythimna separata [21] was determined as 50%. The mortality at 0.025 µg/mL with Culex pipiens pallens [22] turned out to be 15%. Besides, the mortality at 5 µg/mL with Mythimna separata [5] stood at 90%. The mortality at 10 µg/mL in the experiment on Mythimna separata [7] turned out to be 95%. Moreover, the mortality at 0.1 µg/mL with Culex pipiens pallens [10] came to 100%.
